Laboratory results from ChEMBL document CHEMBL3885881, “DrugMatrix”.

Species: Rattus norvegicus
Test: DrugMatrix - Regimen: Daily Repeat
Format: toxicity, organism-based, Sprague-Dawley
Parameters: regimen Daily Repeat, gender Male, age 6-8 weeks
Details: in vivo, po, route oral GAVAGE, vehicle 100 % WATER; for ABSOLUTE BASOPHIL / ABSOLUTE EOSINOPHIL / ABSOLUTE LYMPHOCYTE / ABSOLUTE MONOCYTE / ABSOLUTE SEGMENTED NEUTROPHIL / BASOPHIL / EOSINOPHIL / ERYTHROCYTE COUNT / HEMATOCRIT / HEMOGLOBIN / LEUKOCYTE COUNT / LYMPHOCYTE / MEAN CORPUSCULAR HEMOGLOBIN / MEAN CORPUSCULAR HEMOGLOBIN CONCENTRATION / MEAN CORPUSCULAR VOLUME / MONOCYTE / NEUTROPHIL / NUCLEATED RED BLOOD CELLS / PLATELET COUNT: tissue Blood; for ALANINE AMINOTRANSFERASE / ALBUMIN / ALKALINE PHOSPHATASE / ASPARTATE AMINOTRANSFERASE / BLOOD UREA NITROGEN / CARBON DIOXIDE / CHLORIDE / CHOLESTEROL / CREATINE PHOSPHOKINASE / CREATININE / GLUCOSE / LACTATE DEHYDROGENASE / LIPASE / PHOSPHORUS / POTASSIUM / SODIUM / TOTAL BILIRUBIN / TOTAL PROTEIN / URIC ACID: tissue Plasma
[1] = 300 mg/kg, 72 h, dose level Low, time 3 day
[2] = 300 mg/kg, 120 h, dose level Low, time 5 day
[3] = 1100 mg/kg, 72 h, dose level High, time 3 day
[4] = 1100 mg/kg, 120 h, dose level High, time 5 day

O=C(O)CCNC(=O)c1ccc(/N=N/c2ccc(O)c(C(=O)O)c2)cc1 [BALSALAZIDE]
ABSOLUTE BASOPHIL [1]: 0 CELLS/uL | ABSOLUTE EOSINOPHIL [1]: 0 CELLS/uL | ABSOLUTE LYMPHOCYTE [1]: 11801 CELLS/uL | ABSOLUTE MONOCYTE [1]: 66 CELLS/uL | ABSOLUTE SEGMENTED NEUTROPHIL [1]: 833 CELLS/uL | BASOPHIL [1]: 0% | EOSINOPHIL [1]: 0% | ERYTHROCYTE COUNT [1]: 5.38 x10E6/uL | HEMATOCRIT [1]: 33.73% | HEMOGLOBIN [1]: 13.5 G/DL | LEUKOCYTE COUNT [1]: 12.7 x10E3/uL | LYMPHOCYTE [1]: 93.33% | MEAN CORPUSCULAR HEMOGLOBIN [1]: 25.13 pg | MEAN CORPUSCULAR HEMOGLOBIN CONCENTRATION [1]: 40.03 G/DL | MEAN CORPUSCULAR VOLUME [1]: 62.7 fL | MONOCYTE [1]: 0.33% | NEUTROPHIL [1]: 6.33% | NUCLEATED RED BLOOD CELLS [1]: 0 /100WBC | PLATELET COUNT [1]: 922 x10E3/uL | ALANINE AMINOTRANSFERASE [1]: 56.33 u/L | ALBUMIN [1]: 4.23 G/DL | ALKALINE PHOSPHATASE [1]: 481.33 u/L | ASPARTATE AMINOTRANSFERASE [1]: 94 u/L | BLOOD UREA NITROGEN [1]: 17.33 mg/dL | CARBON DIOXIDE [1]: 29 mmol/L | CHLORIDE [1]: 103.67 MEQ/L | CHOLESTEROL [1]: 73.33 mg/dL | CREATINE PHOSPHOKINASE [1]: 306.67 u/L | CREATININE [1]: 0.22 mg/dL | GLUCOSE [1]: 159.33 mg/dL | LACTATE DEHYDROGENASE [1]: 328 u/L | LIPASE [1]: 8 u/L | PHOSPHORUS [1]: 13.87 mg/dL | POTASSIUM [1]: 6.3 MEQ/L | SODIUM [1]: 144.33 MEQ/L | TOTAL BILIRUBIN [1]: 0.2 mg/dL | TOTAL PROTEIN [1]: 5.93 G/DL | URIC ACID [1]: 1.5 mg/dL | ABSOLUTE BASOPHIL [2]: 0 CELLS/uL | ABSOLUTE EOSINOPHIL [2]: 53.33 CELLS/uL | ABSOLUTE LYMPHOCYTE [2]: 8092.67 CELLS/uL | ABSOLUTE MONOCYTE [2]: 26.67 CELLS/uL | ABSOLUTE SEGMENTED NEUTROPHIL [2]: 694 CELLS/uL | BASOPHIL [2]: 0% | EOSINOPHIL [2]: 0.67% | ERYTHROCYTE COUNT [2]: 5.99 x10E6/uL | HEMATOCRIT [2]: 38.2% | HEMOGLOBIN [2]: 14.6 G/DL | LEUKOCYTE COUNT [2]: 8.87 x10E3/uL | LYMPHOCYTE [2]: 91% | MEAN CORPUSCULAR HEMOGLOBIN [2]: 24.43 pg | MEAN CORPUSCULAR HEMOGLOBIN CONCENTRATION [2]: 38.2 G/DL | MEAN CORPUSCULAR VOLUME [2]: 63.9 fL | MONOCYTE [2]: 0.33% | NEUTROPHIL [2]: 8% | NUCLEATED RED BLOOD CELLS [2]: 0 /100WBC | PLATELET COUNT [2]: 965 x10E3/uL | ALANINE AMINOTRANSFERASE [2]: 61.67 u/L | ALBUMIN [2]: 4.17 G/DL | ALKALINE PHOSPHATASE [2]: 384.67 u/L | ASPARTATE AMINOTRANSFERASE [2]: 83.67 u/L | BLOOD UREA NITROGEN [2]: 17.67 mg/dL | CARBON DIOXIDE [2]: 28.67 mmol/L | CHLORIDE [2]: 102 MEQ/L | CHOLESTEROL [2]: 63.33 mg/dL | CREATINE PHOSPHOKINASE [2]: 238.33 u/L | CREATININE [2]: 0.22 mg/dL | GLUCOSE [2]: 182.67 mg/dL | LACTATE DEHYDROGENASE [2]: 142.67 u/L | LIPASE [2]: 12.33 u/L | PHOSPHORUS [2]: 14.5 mg/dL | POTASSIUM [2]: 6.43 MEQ/L | SODIUM [2]: 146.73 MEQ/L | TOTAL BILIRUBIN [2]: 0.2 mg/dL | TOTAL PROTEIN [2]: 6.07 G/DL | URIC ACID [2]: 2.17 mg/dL | ABSOLUTE BASOPHIL [3]: 0 CELLS/uL | ABSOLUTE EOSINOPHIL [3]: 0 CELLS/uL | ABSOLUTE LYMPHOCYTE [3]: 7596 CELLS/uL | ABSOLUTE MONOCYTE [3]: 55 CELLS/uL | ABSOLUTE SEGMENTED NEUTROPHIL [3]: 682.33 CELLS/uL | BASOPHIL [3]: 0% | EOSINOPHIL [3]: 0% | ERYTHROCYTE COUNT [3]: 5.29 x10E6/uL | HEMATOCRIT [3]: 33.57% | HEMOGLOBIN [3]: 13.27 G/DL | LEUKOCYTE COUNT [3]: 8.33 x10E3/uL | LYMPHOCYTE [3]: 91.33% | MEAN CORPUSCULAR HEMOGLOBIN [3]: 25.13 pg | MEAN CORPUSCULAR HEMOGLOBIN CONCENTRATION [3]: 39.5 G/DL | MEAN CORPUSCULAR VOLUME [3]: 63.47 fL | MONOCYTE [3]: 0.67% | NEUTROPHIL [3]: 8% | NUCLEATED RED BLOOD CELLS [3]: 0 /100WBC | PLATELET COUNT [3]: 833.67 x10E3/uL | ALANINE AMINOTRANSFERASE [3]: 62.67 u/L | ALBUMIN [3]: 4.33 G/DL | ALKALINE PHOSPHATASE [3]: 344.33 u/L | ASPARTATE AMINOTRANSFERASE [3]: 98.67 u/L | BLOOD UREA NITROGEN [3]: 15 mg/dL | CARBON DIOXIDE [3]: 32.67 mmol/L | CHLORIDE [3]: 101.67 MEQ/L | CHOLESTEROL [3]: 84.33 mg/dL | CREATINE PHOSPHOKINASE [3]: 333 u/L | CREATININE [3]: 0.49 mg/dL | GLUCOSE [3]: 160.33 mg/dL | LACTATE DEHYDROGENASE [3]: 159 u/L | LIPASE [3]: 12 u/L | PHOSPHORUS [3]: 11.9 mg/dL | POTASSIUM [3]: 5.97 MEQ/L | SODIUM [3]: 145.53 MEQ/L | TOTAL BILIRUBIN [3]: 0.27 mg/dL | TOTAL PROTEIN [3]: 6.1 G/DL | URIC ACID [3]: 0.67 mg/dL | ABSOLUTE BASOPHIL [4]: 0 CELLS/uL | ABSOLUTE EOSINOPHIL [4]: 0 CELLS/uL | ABSOLUTE LYMPHOCYTE [4]: 12609 CELLS/uL | ABSOLUTE MONOCYTE [4]: 37.67 CELLS/uL | ABSOLUTE SEGMENTED NEUTROPHIL [4]: 1253.33 CELLS/uL | BASOPHIL [4]: 0% | EOSINOPHIL [4]: 0% | ERYTHROCYTE COUNT [4]: 5.68 x10E6/uL | HEMATOCRIT [4]: 35.73% | HEMOGLOBIN [4]: 14.1 G/DL | LEUKOCYTE COUNT [4]: 13.9 x10E3/uL | LYMPHOCYTE [4]: 91.33% | MEAN CORPUSCULAR HEMOGLOBIN [4]: 24.87 pg | MEAN CORPUSCULAR HEMOGLOBIN CONCENTRATION [4]: 39.47 G/DL | MEAN CORPUSCULAR VOLUME [4]: 62.93 fL | MONOCYTE [4]: 0.33% | NEUTROPHIL [4]: 8.33% | NUCLEATED RED BLOOD CELLS [4]: 0 /100WBC | PLATELET COUNT [4]: 1338 x10E3/uL | ALANINE AMINOTRANSFERASE [4]: 55.33 u/L | ALBUMIN [4]: 4 G/DL | ALKALINE PHOSPHATASE [4]: 346.67 u/L | ASPARTATE AMINOTRANSFERASE [4]: 106 u/L | BLOOD UREA NITROGEN [4]: 17.67 mg/dL | CARBON DIOXIDE [4]: 27 mmol/L | CHLORIDE [4]: 104 MEQ/L | CHOLESTEROL [4]: 55.33 mg/dL | CREATINE PHOSPHOKINASE [4]: 414 u/L | CREATININE [4]: 0.14 mg/dL | GLUCOSE [4]: 163.67 mg/dL | LACTATE DEHYDROGENASE [4]: 452.33 u/L | LIPASE [4]: 10 u/L | PHOSPHORUS [4]: 12.77 mg/dL | POTASSIUM [4]: 6.29 MEQ/L | SODIUM [4]: 144.53 MEQ/L | TOTAL BILIRUBIN [4]: 0.17 mg/dL | TOTAL PROTEIN [4]: 5.57 G/DL | URIC ACID [4]: 1.53 mg/dL
